Legend:
blackgrass = assay: Test B pre/postemergence blackgrass; type: in vivo, Alopecurus myosuroides
Method in brief: (§1)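 Herbicidal effect was estimated by eye on a ten-point control scale after plants spent twelve to sixteen days in a greenhouse following soil or foliar treatment. Foliar sprays targeted plants at one to four leaves; all doses were formulated in a non-phytotoxic solvent with surfactant.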

giant foxtail = assay: Test B pre/postemergence giant foxtail; type: in vivo, Setaria faberii
Method in brief: as §1

bedstraw = assay: Test B pre/postemergence bedstraw; type: in vivo, Galium aparine
Method in brief: as §1

crabgrass = assay: Test B pre/postemergence crabgrass; type: in vivo, Digitaria sanguinalis
Method in brief: as §1

rape = assay: Test B pre/postemergence rape; type: in vivo, Brassica napus
Method in brief: as §1

morningglory = assay: Test B pre/postemergence morningglory; type: in vivo, Ipomoea hederacea
Method in brief: as §1

cocklebur = assay: Test B pre/postemergence cocklebur; type: in vivo, Xanthium strumarium
Method in brief: as §1

surinam grass = assay: Test B pre/postemergence surinam grass; type: in vivo, Brachiaria decumbens
Method in brief: as §1

wild oat = assay: Test B pre/postemergence wild oat; type: in vivo, Avena fatua; settings: for Plant response rating, Wild oats: Postemergence
Method in brief: as §1

sugar beet = assay: Test B pre/postemergence sugar beet; type: in vivo, Beta vulgaris; settings: for Plant response rating, Sugarbeets: Postemergence
Method in brief: as §1

corn = assay: Test B pre/postemergence corn; type: in vivo, Zea mays
Method in brief: as §1

velvetleaf = assay: Test B pre/postemergence velvetleaf; type: in vivo, Abutilon theophrasti; settings: for Plant response rating, Velvetleaf: Postemergence
Method in brief: as §1

pigweed = assay: Test B pre/postemergence pigweed; type: in vivo, Amaranthus retroflexus; settings: for Plant response rating, Redroot pigweed: Postemergence
Method in brief: as §1

purple nutsedge = assay: Test B pre/postemergence purple nutsedge; type: in vivo, Cyperus rotundus
Method in brief: as §1

soybean = assay: Test B pre/postemergence soybean; type: in vivo, Glycine max; settings: for Plant response rating, Soybean: Postemergence
Method in brief: as §1

wheat = assay: Test B pre/postemergence wheat; type: in vivo, Triticum aestivum; settings: for Plant response rating, Wheat: Postemergence
Method in brief: as §1

[1] = Postemergence, Rate 62 g/ha, scale of 0 to 10, 0 is no effect, 10 is complete control
[2] = Postemergence, Rate 125 g/ha, scale 0 to 10, 0 is no effect, 10 is complete control
[3] = Postemergence, Rate 500 g/ha, scale of 0 to 10 where 0 is no effect and 10 is complete control
[4] = Preemergence, Rate 62 g/ha, scale 0 to 10 (0 no effect, 10 complete control)
[5] = Preemergence, Rate 125 g/ha, scale of 0 to 10 where 0 is no effect and 10 is complete control
[6] = Preemergence, Rate 500 g/ha, scale of 0 to 10 where 0 is no effect and 10 is complete control
[7] = Rate 250 g/ha, Postemergence, scale of 0 to 10 where 0 is no effect and 10 is complete control
[8] = Rate 500 g/ha, scale of 0 to 10 where 0 is no effect and 10 is complete control
[9] = Rate 250 g/ha, scale of 0 to 10 where 0 is no effect and 10 is complete control

CC(C)N(C(=O)n1oc(=O)n(COCc2ccccc2)c1=O)c1ccccc1 [Compound 579]
Blackgrass plant response rating (blackgrass; [1]): 0 | Blackgrass plant response rating (blackgrass; [2]): 0 | Plant response rating, Blackgrass (blackgrass; [3]): 5 | Blackgrass plant response rating (blackgrass; [4]): 0 | Blackgrass plant response rating (blackgrass; [5]): 0 | Blackgrass plant response rating (0 to 10 scale) (blackgrass; Preemergence, Rate 250 g/ha): 0 | Blackgrass plant response rating (blackgrass; [6]): 0 | Plant response rating, Blackgrass (blackgrass; [7]): 2 | Giant foxtail plant response rating (giant foxtail; [1]): 0 | Giant foxtail plant response rating (giant foxtail; [2]): 2 | Plant response rating, Giant foxtail (giant foxtail; [3]): 7 | Giant foxtail plant response rating (giant foxtail; [4]): 8 | Giant foxtail plant response rating (giant foxtail; [5]): 9 | Giant foxtail plant response rating (0 to 10 scale) (giant foxtail; Preemergence, Rate 250 g/ha): 10 | Giant foxtail plant response rating (giant foxtail; [6]): 10 | Plant response rating, Giant foxtail (giant foxtail; [7]): 5 | Bedstraw plant response rating (bedstraw; [1]): 0 | Bedstraw plant response rating (bedstraw; [2]): 0 | Bedstraw plant response rating (bedstraw; [4]): 0 | Bedstraw plant response rating (bedstraw; [5]): 0 | Bedstraw plant response rating (0 to 10 scale) (bedstraw; Preemergence, Rate 250 g/ha): 0 | Bedstraw plant response rating (bedstraw; [6]): 0 | Plant response rating, Bedstraw (bedstraw; [7]): 10 | Crabgrass plant response rating (crabgrass; [1]): 0 | Crabgrass plant response rating (crabgrass; [2]): 6 | Plant response rating, Crabgrass (crabgrass; [3]): 8 | Crabgrass plant response rating (crabgrass; [4]): 7 | Crabgrass plant response rating (crabgrass; [5]): 7 | Crabgrass plant response rating (0 to 10 scale) (crabgrass; Preemergence, Rate 250 g/ha): 10 | Crabgrass plant response rating (crabgrass; [6]): 10 | Plant response rating, Crabgrass (crabgrass; [7]): 6 | Rape plant response rating (rape; [1]): 0 | Rape plant response rating (rape; [2]): 0 | Plant response rating, Rape (rape; [3]): 3 | Rape plant response rating (rape; [4]): 0 | Rape plant response rating (rape; [5]): 0 | Rape plant response rating (0 to 10 scale) (rape; Preemergence, Rate 250 g/ha): 0 | Rape plant response rating (rape; [6]): 0 | Plant response rating, Rape (rape; [7]): 0 | Morningglory plant response rating (morningglory; [1]): 10 | Morningglory plant response rating (morningglory; [2]): 10 | Plant response rating, Morningglory (morningglory; [3]): 10 | Morningglory plant response rating (morningglory; [4]): 0 | Morningglory plant response rating (morningglory; [5]): 0 | Morningglory plant response rating (0 to 10 scale) (morningglory; Preemergence, Rate 250 g/ha): 0 | Morningglory plant response rating (morningglory; [6]): 0 | Plant response rating, Morningglory (morningglory; [7]): 10 | Cocklebur plant response rating (cocklebur; [1]): 0 | Cocklebur plant response rating (cocklebur; [2]): 0 | Plant response rating, Cocklebur (cocklebur; [3]): 0 | Cocklebur plant response rating (cocklebur; [4]): 0 | Cocklebur plant response rating (cocklebur; [5]): 0 | Cocklebur plant response rating (0 to 10 scale) (cocklebur; Preemergence, Rate 250 g/ha): 0 | Cocklebur plant response rating (cocklebur; [6]): 0 | Plant response rating, Cocklebur (cocklebur; [7]): 0 | B. signalgrass plant response rating (surinam grass; [1]): 0 | B. signalgrass plant response rating (surinam grass; [2]): 0 | Plant response rating, B. signalgrass (surinam grass; [3]): 2 | B. signalgrass plant response rating (surinam grass; [4]): 0 | B. signalgrass plant response rating (surinam grass; [5]): 0 | B. signalgrass plant response rating (0 to 10 scale, 0 is no effect, 10 is complete control) (surinam grass; Preemergence, Rate 250 g/ha): 2 | B. signalgrass plant response rating (surinam grass; [6]): 3 | Plant response rating, B. signalgrass (surinam grass; [7]): 2 | Plant response rating, Wild oats (wild oat; [8]): 0 | Wild oats plant response rating (wild oat; [4]): 0 | Wild oats plant response rating (wild oat; [5]): 0 | Wild oats plant response rating (0 to 10 scale) (wild oat; Preemergence, Rate 250 g/ha): 0 | Wild oats plant response rating (wild oat; [6]): 0 | Plant response rating, Wild oats (wild oat; [9]): 0 | Plant response rating, Sugarbeets (sugar beet; [8]): 0 | Sugarbeets plant response rating (sugar beet; [4]): 0 | Sugarbeets plant response rating (sugar beet; [5]): 0 | Sugarbeets plant response rating (0 to 10 scale) (sugar beet; Preemergence, Rate 250 g/ha): 0 | Sugarbeets plant response rating (sugar beet; [6]): 0 | Plant response rating, Sugarbeets (sugar beet; [9]): 0 | Corn plant response rating (corn; [1]): 0 | Corn plant response rating (corn; [2]): 0 | Plant response rating, Corn (corn; [3]): 0 | Corn plant response rating (corn; [4]): 0 | Corn plant response rating (corn; [5]): 0 | Corn plant response rating (0 to 10 scale) (corn; Preemergence, Rate 250 g/ha): 0 | Corn plant response rating (corn; [6]): 3 | Plant response rating, Corn (corn; [7]): 0 | Plant response rating, Velvetleaf (velvetleaf; [8]): 0 | Velvetleaf plant response rating (velvetleaf; [4]): 0 | Velvetleaf plant response rating (velvetleaf; [5]): 0 | Velvetleaf plant response rating (0 to 10 scale) (velvetleaf; Preemergence, Rate 250 g/ha): 0 | Velvetleaf plant response rating (velvetleaf; [6]): 0 | Plant response rating, Velvetleaf (velvetleaf; [9]): 0 | Plant response rating, Redroot pigweed (pigweed; [8]): 3 | Redroot pigweed plant response rating (pigweed; [4]): 0 | Redroot pigweed plant response rating (pigweed; [5]): 0 | Redroot pigweed plant response rating (0 to 10 scale) (pigweed; Preemergence, Rate 250 g/ha): 2 | Redroot pigweed plant response rating (pigweed; [6]): 3 | Plant response rating, Redroot pigweed (pigweed; [9]): 0 | Nutsedge plant response rating (purple nutsedge; [2]): 0 | Nutsedge plant response rating (purple nutsedge; [4]): 0 | Nutsedge plant response rating (purple nutsedge; [5]): 0 | Nutsedge plant response rating (0 to 10 scale) (purple nutsedge; Preemergence, Rate 250 g/ha): 0 | Nutsedge plant response rating (purple nutsedge; [6]): 3 | Plant response rating, Nutsedge (purple nutsedge; [7]): 0 | Plant response rating, Soybean (soybean; [8]): 4 | Soybean plant response rating (soybean; [4]): 0 | Soybean plant response rating (soybean; [5]): 0 | Soybean plant response rating (0 to 10 scale) (soybean; Preemergence, Rate 250 g/ha): 0 | Soybean plant response rating (soybean; [6]): 0 | Plant response rating, Soybean (soybean; [9]): 3 | Plant response rating, Wheat (wheat; [8]): 0 | Wheat plant response rating (wheat; [4]): 0 | Wheat plant response rating (wheat; [5]): 0 | Wheat plant response rating (0 to 10 scale) (wheat; Preemergence, Rate 250 g/ha): 0 | Wheat plant response rating (wheat; [6]): 0 | Plant response rating, Wheat (wheat; [9]): 0

Reference: patent publication US6737383B1, “Herbicidal oxadiazolidines” (priority 1999, dated 2004)
